Measurements taken from ChEMBL document CHEMBL5523681, “Lysosome-targeted Aza-BODIPY photosensitizers for anti-cancer photodynamic therapy” (Bioorg Med Chem, 2024).
Active and inactive are the calls of the source. The rule behind the calls is not given here.

What was measured:
[1] = Fluorescence property of compound assessed as quantum yield in CHCl3 by spectroscopic analysis; format: physicochemical
[2] = Dark toxicity in mouse B16-F10 cells incubated for 3 hrs by CCK-8 assay; format: cell-based
[3] = Stability of compound in DMF under dark condition; format: physicochemical
[4] = Ratio of relative degradation rate of DPBF in PBS at pH 5.2 in presence of HCl to relative degradation rate of DPBF in PBS at pH 7; format: physicochemical; details: buffer
[5] = tested on: MRC5; experiment: Cytotoxicity against human MRC5 cells in presence of 16 J/cm^2 light irradiation; format: functional, cell-based; details: MRC5, light or radiation study
[6] = Photosensitizing ability of the compound in DMF at pH 7 assessed as singlet oxygen quantum yield; format: functional
[7] = tested on: HepG2; experiment: Cytotoxicity against human HepG2 cells preincubated with compound for 3 hrs followed by 81 J/cm2 light irradiation and measured after 24 hrs by CCK8 assay; format: functional, cell-based; details: HepG2, light or radiation study
[8] = Photostability of compound in emulsified PBS buffer in presence of […] light irradiation measured upto 10 mins by absorption based assay; format: physicochemical
[9] = Photosensitizing ability of the compound in PBS at pH 7.4 assessed as singlet oxygen production by measuring relative degradation rate of DPBF at 411 nm under photoirradiation with 90 mW/cm2 light by absorbance based assay; format: functional
[10] = Photosensitizing ability of the compound in DMF at pH 5.2 assessed as singlet oxygen quantum yield in presence of HCl; format: functional
[11] = Dark toxicity in human HepG2 cells incubated for 3 hrs by CCK-8 assay; format: cell-based
[12] = Dark toxicity in human HeLa cells incubated for 3 hrs by CCK-8 assay; format: cell-based
[13] = Ratio of singlet oxygen quantum yield in DMF at pH 5.2 in presence of HCl to singlet oxygen quantum yield in DMF at pH 7; format: functional
[14] = tested on: HeLa; experiment: Cytotoxicity against human HeLa cells preincubated with compound for 3 hrs followed by 81 J/cm2 light irradiation and measured after 24 hrs by CCK8 assay; format: functional, cell-based; details: light or radiation study
[15] = tested on: B16-F10; experiment: Cytotoxicity against mouse B16-F10 cells preincubated with compound for 3 hrs followed by 81 J/cm2 light irradiation and measured after 24 hrs by CCK8 assay; format: functional, cell-based; details: B16-F10, light or radiation study
[16] = Stability of compound in CH3CN under dark condition; format: physicochemical
[17] = Photosensitizing ability of the compound in PBS at pH 5.2 in presence of HCl assessed as singlet oxygen production by measuring relative degradation rate of DPBF at 411 nm under photoirradiation with 90 mW/cm2 light by absorbance based assay; format: functional
[18] = Stability of compound in emulsified PBS buffer under dark condition; format: physicochemical
[19] = Toxicity in female BALB/c nude mouse xenografted with human HeLa cells assessed as decrease in body weight at 2 mg/kg, iv preadministered with compound for 3 hrs followed by 54 J/cm2 light irradiation and measured after 10 days; format: organism-based; details: in vivo, 240 h, time 10 day
[20] = tested on: HeLa; experiment: Antitumor activity against human HeLa cells xenografted in female BALB/c nude mouse assessed as inhibition of tumor growth at 2 mg/kg, iv preadministered with compound for 3 hrs followed by 54 J/cm2 light irradiation and measured after 24 days; format: functional, organism-based; details: time 24.0 day
[21] = Toxicity in female BALB/c nude mouse xenografted with human HeLa cells assessed as decrease in body weight at 2 mg/kg, iv preadministered with compound for 3 hrs followed by 54 J/cm2 light irradiation and measured after 24 days; format: organism-based; details: in vivo, 576 h, time 24 day
[22] = Drug localization in endoplasmic reticulum of human HeLa cells at 5 uM incubated for 2 hrs by ER-Tracker blue dye based confocal scanning microscopic analysis; format: ADME, subcellular
[23] = Drug localization in mitochondria of human HeLa cells at 5 uM incubated for 2 hrs by Mito-tracker green dye based confocal scanning microscopic analysis; format: ADME
[24] = Drug uptake in human HeLa cells assessed as increase in fluorescence intensity at 5 uM by confocal scanning microscopic analysis; format: ADME, cell-based; details: 5 h, TDE = time-dependent effect
[25] = Drug uptake in liver of female BALB/c nude mouse xenografted with human HeLa cells at 2 mg/kg, iv measured after 3 hrs by fluorescence imaging analysis; format: ADME, organism-based; details: in vivo
[26] = Fluorescence property of compound assessed as quantum yield; format: physicochemical
[27] = Drug uptake in mouse B16-F10 cells measured after 4 hrs by confocal scanning microscopic analysis; format: ADME, cell-based; details: b16-f10, 4 h
[28] = Drug localization in lysosome of human HeLa cells at 5 uM incubated for 3 hrs by Lyso-tracker blue dye based confocal scanning microscopic analysis; format: ADME, subcellular
[29] = Drug localization in mitochondria of human HeLa cells at 5 uM incubated for 3 hrs by Mito-tracker green dye based confocal scanning microscopic analysis; format: ADME
[30] = Drug uptake in lung of female BALB/c nude mouse xenografted with human HeLa cells at 2 mg/kg, iv measured after 3 hrs by fluorescence imaging analysis; format: ADME, organism-based; details: in vivo
[31] = Drug uptake in spleen of female BALB/c nude mouse xenografted with human HeLa cells at 2 mg/kg, iv measured after 3 hrs by fluorescence imaging analysis; format: ADME, organism-based; details: in vivo
[32] = Drug localization in endoplasmic reticulum of human HeLa cells at 5 uM incubated for 3 hrs by ER-Tracker blue dye based confocal scanning microscopic analysis; format: ADME, subcellular
[33] = Drug uptake in female BALB/c nude mouse xenografted with human HeLa cells at 2 mg/kg, iv measured after 3 hrs by fluorescence imaging analysis; format: ADME, organism-based; details: in vivo
[34] = tested on: HeLa; experiment: Induction of ROS production in human HeLa cells assessed as increase in fluorescence intensity at 20 to 500 nM incubated for 3 hrs in presence of 81 J/cm2 light irradiation by confocal scanning microscopic analysis; format: functional, cell-based; details: dose 20-500 nM
[35] = tested on: HeLa; experiment: Antitumor activity against human HeLa cells xenografted in female BALB/c nude mouse assessed as reduction in tumor size at 2 mg/kg, iv preadministered with compound for 3 hrs followed by 54 J/cm2 light irradiation and measured after 24 days relative to control; format: functional; set-up: scale not given: the % may be the effect or the level left; details: time 24 day

Stability [3] | Ratio [4] | Stability [8] | Stability [16] | Stability [18] | SMILES | IC50 at 3 h [2] [nM] | Activity [6] | IC50 [7] [nM] | Activity [9] | Activity [10] | IC50 at 3 h [11] [nM] | IC50 at 3 h [12] [nM] | Ratio [13] | IC50 [14] [nM] | IC50 [15] [nM] | Activity [17] | Activity [20] | further results
 |  |  |  |  | COc1ccc(C2=N/C(=N\c3[nH]c(-c4ccc(OC)cc4)cc3-c3ccccc3)C(c3ccccc3)=C2)cc1 |  |  |  |  |  |  |  |  |  |  |  |  | Activity [1]: 0.36
Unstable | 1.08 | Unstable | Unstable | Unstable | CCN(CC)Cc1ccc(C2=C(Br)C(c3ccc(OC)cc3)=[N+]3C2=Nc2c(-c4ccc(CN(CC)CC)cc4)c(Br)c(-c4ccc(OC)cc4)n2[B-]3(F)F)cc1 | 33100 | 0.25 | 70.6 | 1.06 | 0.65 | 23500 | 22000 | 2.6 | 44.9 | 20.8 | 1.15 |  | EC50 [5]: 5.8 nM
Unstable | 1.2 | Unstable | Unstable | Unstable | CCN(CC)Cc1ccc(C2=C(I)C(c3ccc(OC)cc3)=[N+]3C2=Nc2c(-c4ccc(CN(CC)CC)cc4)c(I)c(-c4ccc(OC)cc4)n2[B-]3(F)F)cc1 | 49600 | 0.61 | 73.5 | 0.91 | 0.75 | 28900 | 26100 | 1.23 | 51.1 | 73.5 | 1.09 |  | 
 |  |  |  |  | C=Cc1c(C)c2cc3nc(c(CC(=O)O)c4[nH]c(cc5nc(cc1[nH]2)C(C)=C5CC)c(C)c4C(=O)O)[C@@H](CCC(=O)O)[C@@H]3C [CHLORIN E6] |  |  |  |  |  |  |  |  |  |  |  | Active | Activity [19]: Toxic
Unstable | 1.13 | Unstable | Unstable | Unstable | CCN(CC)Cc1ccc(C2=C(I)C(c3ccc(OC)cc3)=[N+]3C2=Nc2c(-c4ccccc4)c(I)c(-c4ccc(OC)cc4)n2[B-]3(F)F)cc1 | 49900 | 0.58 | 132 | 0.87 | 0.74 | 49400 | > 50000 | 1.28 | 60.8 | 78.6 | 0.98 |  | 
 | 1.01 | Stable |  |  | COc1ccc(C2=[N+]3C(=Nc4c(-c5ccccc5)cc(-c5ccc(OC)cc5)n4[B-]3(F)F)C(c3ccccc3)=C2I)cc1 | > 50000 | 0.52 | 38.6 | 1.18 | 0.51 | > 50000 | > 50000 | 0.98 | 26.7 | 155 | 1.19 | Active | Activity [21]: Non-Toxic; Drug uptake [22]: Not Active; Drug uptake [23]: Not Active
Stable | 1.44 | Stable | Stable | Stable | CCN(CC)Cc1ccc(C2=C(I)C(c3ccc(OC)cc3)=[N+]3C2=Nc2c(-c4ccccc4)c4c(n2[B-]3(F)F)-c2ccc(OC)cc2CC4)cc1 | > 50000 | 0.44 | 14.1 | 0.84 | 0.51 | > 50000 | > 50000 | 1.16 | 6.7 | 15 | 1.21 |  | 
Stable | 1.36 | Stable | Stable | Stable | CCN(CC)Cc1ccc(C2=C(I)C(c3ccc(OC)cc3)=[N+]3C2=Nc2c(-c4ccc(CN(CC)CC)cc4)cc(-c4ccc(OC)cc4)n2[B-]3(F)F)cc1 | > 50000 | 0.44 | 15.1 | 1.07 | 0.65 | > 50000 | > 50000 | 1.48 | 5.3 | 7.9 | 1.45 | Active | Drug uptake [24]: Tde; Activity [21]: Non-Toxic; Drug uptake [25]: Active; Activity [26]: 0.05; Drug uptake [27]: Active; Drug uptake [28]: Active; Drug uptake [29]: Not Active; Drug uptake [30]: Active; Drug uptake [31]: Active; Drug uptake [32]: Not Active; Drug uptake [33]: Active; Activity [34]: Active; Activity [35]: 60%
